From patent US20120276196A1, “Pharmaceutical Compositions of a Neuroactive Steroid and Methods of Use Thereof” (Euro-Celtique S.A., priority 2005, published 2012)

Assays:
[1] = human, in vivo, po
Excerpt: (§1) The study is designed as an escalating single-dose, randomized, double-blind, placebo-controlled study in healthy adult male subjects.
(§2) The subjects will be monitored closely for safety and be tested using various pharmacodynamic measures during this phase. E.g. blood and urine samples will be collected for determination of the concentration of the active agent and its metabolites.
(§3) Pharmacokinetic samples will be analyzed after each cohort to examine the extent of drug exposure. Blood samples will be collected for determination of the active agent, its metabolites, and related substances at the following time-points: 0.25, 0.5, 1.0, 1.5, 2, 3, 4, 5, 6, 8, 10,12, 24, 30, 36, 48, 60, 72, 84 hr after dosing, and at End of Study. Up to 5 additional post-dosing blood sampling(s) may be performed and/or the timing of pharmacokinetic parameters draws may change if indicated after the analysis of blood samples from previous cohort(s). Samples will be collected after vital signs, pulse oximetry, and ECG are obtained.

clinical = details: male, human, in vivo
Excerpt: as §1, §2, §3

[2] = escalating single-dose, randomized, double blind, placebo-controlled pharmacokinetic study, oral suspension, healthy male subjects; details: human, plasma
Excerpt: as §1, §2, §3

For COC[C@@]1(O)CC[C@]2(C)C3CC[C@@]4(C)C(CC[C@@H]4C(=O)Cn4ccnc4)C3CC[C@H]2C1 (stereo partly drawn) [3α-hydroxy-3β-methoxymethyl-21-(1′-imidazolyl)-5α-pregnan-20-one], the “Cmax levels between subjects” value [1] was “variable”, the “Cmax values versus dose” value [1] was “greater than dose-proportional” and the Tmax (clinical) was 1.5 to 5 h. It also gave a Cmax (clinical; 1 mg) of 1 to 1.8 ng/mL, a Cmax (clinical; 3 mg) of 4 to 8 ng/mL and a Cmax (clinical; 10 mg) of 16.9 to 46.3 ng/mL. The Cmax (clinical; 30 mg) was 95.6 to 154 ng/mL, the Cmax (clinical; 60 mg) was 218 to 479 ng/mL and the Tmax (clinical; po) was 1 to 3 h. It also gave a half-life (clinical; po) of about 12 h, a Cmax (clinical; po, 1 mg) of 1.3 ng/mL and a Tmax (clinical; po, 1 mg) of 3.1 h. It also gave an AUC(0-t) (clinical; po, 1 mg, AUC (0-24)) of 16.9 ng·h/mL, an AUC(0-t) (clinical; po, 1 mg, AUC (0-last)) of 22.4 ng·h/mL and a Cmax (clinical; po, 3 mg) of 5.7 ng/mL. It also gave a Tmax (clinical; po, 3 mg) of 2.8 h, a half-life (clinical; po, 3 mg) of 8.8 h and an AUC(0-t) (clinical; po, 3 mg, AUC (0-24)) of 54.6 ng·h/mL. For the same compound, the AUC(0-t) (clinical; po, 3 mg, AUC (0-last)) was 65.6 ng·h/mL, the Cmax (clinical; po, 10 mg) was 26.5 ng/mL and the Tmax (clinical; po, 10 mg) was 1.7 h. For the same compound, the AUC(0-t) (clinical; po, 10 mg, AUC (0-24)) was 213 ng·h/mL, the AUC(0-t) (clinical; po, 10 mg, AUC (0-last)) was 254 ng·h/mL and the Cmax (clinical; po, 30 mg) was 120 ng/mL. The Tmax (clinical; po, 30 mg) was 2.1 h, the AUC(0-t) (clinical; po, 30 mg, AUC (0-24)) was 952 ng·h/mL and the AUC(0-t) (clinical; po, 30 mg, AUC (0-last)) was 1120 ng·h/mL. It also gave a Cmax (clinical; po, 60 mg) of 330 ng/mL, a Tmax (clinical; po, 60 mg) of 1.8 h and an AUC(0-t) (clinical; po, 60 mg, AUC (0-24)) of 2330 ng·h/mL. The AUC(0-t) (clinical; po, 60 mg, AUC (0-last)) was 2610 ng·h/mL, the half-life ([2]; 1 mg) was 13.8 h and the half-life ([2]; 10 mg) was 13.1 h. The half-life ([2]; 30 mg) was 13.1 h and the half-life ([2]; 60 mg) was 12.5 h.
